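Test compounds were applied to cells in 96-well plates for 48 hours at 5 doses. At the TGI there is no net growth.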
What was measured:
Test in all cases: NCI anticancer screen, dose series, 48 h
786-0 renal = tested on: 786-0 renal
A498 renal = tested on: A498 renal
A549 NSCLC = tested on: A549 NSCLC
ACHN renal = tested on: ACHN renal
BT-549 breast = tested on: BT-549 breast
CCRF-CEM leukemia = tested on: CCRF-CEM leukemia
COLO 205 colon = tested on: COLO 205 colon
DU-145 prostate = tested on: DU-145 prostate
EKVX NSCLC = tested on: EKVX NSCLC
HCC-2998 colon = tested on: HCC-2998 colon
HCT-116 colon = tested on: HCT-116 colon
HCT-15 colon = tested on: HCT-15 colon
HL-60(TB) leukemia = tested on: HL-60(TB) leukemia
HOP-62 NSCLC = tested on: HOP-62 NSCLC
HS 578T breast = tested on: HS 578T breast
HT29 colon = tested on: HT29 colon
IGROV1 ovarian = tested on: IGROV1 ovarian
K-562 leukemia = tested on: K-562 leukemia
KM12 colon = tested on: KM12 colon
LOX IMVI melanoma = tested on: LOX IMVI melanoma
M14 melanoma = tested on: M14 melanoma
MALME-3M melanoma = tested on: MALME-3M melanoma
MCF7 breast = tested on: MCF7 breast
MDA-MB-231 breast = tested on: MDA-MB-231 breast
MDA-MB-435 = tested on: MDA-MB-435
MOLT-4 leukemia = tested on: MOLT-4 leukemia
NCI-H226 lung = tested on: NCI-H226 lung
NCI-H23 lung = tested on: NCI-H23 lung
NCI-H460 lung = tested on: NCI-H460 lung
NCI-H522 lung = tested on: NCI-H522 lung
NCI/ADR-RES ovarian = tested on: NCI/ADR-RES ovarian
OVCAR-3 ovarian = tested on: OVCAR-3 ovarian
OVCAR-4 ovarian = tested on: OVCAR-4 ovarian
OVCAR-5 ovarian = tested on: OVCAR-5 ovarian
PC-3 prostate = tested on: PC-3 prostate
RPMI-8226 leukemia = tested on: RPMI-8226 leukemia
RXF 393 renal = tested on: RXF 393 renal
SF-268 CNS = tested on: SF-268 CNS
SF-295 CNS = tested on: SF-295 CNS
SF-539 CNS = tested on: SF-539 CNS
SK-MEL-2 melanoma = tested on: SK-MEL-2 melanoma
SK-MEL-28 melanoma = tested on: SK-MEL-28 melanoma
SK-MEL-5 melanoma = tested on: SK-MEL-5 melanoma
SK-OV-3 ovarian = tested on: SK-OV-3 ovarian
SN12C renal = tested on: SN12C renal
SNB-19 CNS = tested on: SNB-19 CNS
SNB-75 CNS = tested on: SNB-75 CNS
SR leukemia = tested on: SR leukemia
SW-620 colon = tested on: SW-620 colon
T-47D breast = tested on: T-47D breast
TK-10 renal = tested on: TK-10 renal
U251 CNS = tested on: U251 CNS
UACC-62 melanoma = tested on: UACC-62 melanoma
UO-31 renal = tested on: UO-31 renal
CAKI-1 renal = tested on: CAKI-1 renal
HOP-92 NSCLC = tested on: HOP-92 NSCLC
OVCAR-8 ovarian = tested on: OVCAR-8 ovarian
UACC-257 melanoma = tested on: UACC-257 melanoma

## CNc1ccccc1S(=O)(=O)c1ccccc1[N+](=O)[O-]
786-0 renal
  TGI: > 100 µM
A498 renal
  TGI: > 100 µM
A549 NSCLC
  TGI: > 100 µM
ACHN renal
  TGI: > 100 µM
BT-549 breast
  TGI: 65.3 µM
CCRF-CEM leukemia
  TGI: > 100 µM
COLO 205 colon
  TGI: > 100 µM
DU-145 prostate
  TGI: > 100 µM
EKVX NSCLC
  TGI: > 100 µM
HCC-2998 colon
  TGI: > 100 µM
HCT-116 colon
  TGI: > 100 µM
HCT-15 colon
  TGI: > 100 µM
HL-60(TB) leukemia
  TGI: > 100 µM
HOP-62 NSCLC
  TGI: > 100 µM
HS 578T breast
  TGI: > 100 µM
HT29 colon
  TGI: > 100 µM
IGROV1 ovarian
  TGI: > 100 µM
K-562 leukemia
  TGI: > 100 µM
KM12 colon
  TGI: > 100 µM
LOX IMVI melanoma
  TGI: > 100 µM
M14 melanoma
  TGI: > 100 µM
MALME-3M melanoma
  TGI: > 100 µM
MCF7 breast
  TGI: > 100 µM
MDA-MB-231 breast
  TGI: > 100 µM
MDA-MB-435
  TGI: > 100 µM
MOLT-4 leukemia
  TGI: > 100 µM
NCI-H226 lung
  TGI: > 100 µM
NCI-H23 lung
  TGI: > 100 µM
NCI-H460 lung
  TGI: > 100 µM
NCI-H522 lung
  TGI: > 100 µM
NCI/ADR-RES ovarian
  TGI: > 100 µM
OVCAR-3 ovarian
  TGI: > 100 µM
OVCAR-4 ovarian
  TGI: > 100 µM
OVCAR-5 ovarian
  TGI: > 100 µM
PC-3 prostate
  TGI: > 100 µM
RPMI-8226 leukemia
  TGI: > 100 µM
RXF 393 renal
  TGI: > 100 µM
SF-268 CNS
  TGI: > 100 µM
SF-295 CNS
  TGI: > 100 µM
SF-539 CNS
  TGI: > 100 µM
SK-MEL-2 melanoma
  TGI: > 100 µM
SK-MEL-28 melanoma
  TGI: > 100 µM
SK-MEL-5 melanoma
  TGI: > 100 µM
SK-OV-3 ovarian
  TGI: > 100 µM
SN12C renal
  TGI: > 100 µM
SNB-19 CNS
  TGI: > 100 µM
SNB-75 CNS
  TGI: > 100 µM
SR leukemia
  TGI: > 100 µM
SW-620 colon
  TGI: > 100 µM
T-47D breast
  TGI: > 100 µM
TK-10 renal
  TGI: > 100 µM
U251 CNS
  TGI: > 100 µM
UACC-62 melanoma
  TGI: > 100 µM
UO-31 renal
  TGI: > 100 µM

## COc1ccc(P2(=S)OCCOP(=S)(c3ccc(OC)cc3)S2)cc1 (stereo not drawn)
786-0 renal
  TGI: > 42 µM
A498 renal
  TGI: 7.05 µM
A549 NSCLC
  TGI: > 100 µM
ACHN renal
  TGI: > 100 µM
BT-549 breast
  TGI: > 79.9 µM
CAKI-1 renal
  TGI: > 100 µM
CCRF-CEM leukemia
  TGI: 25.1 µM
COLO 205 colon
  TGI: 55.8 µM
DU-145 prostate
  TGI: > 100 µM
EKVX NSCLC
  TGI: > 100 µM
HCC-2998 colon
  TGI: 7.5 µM
HCT-116 colon
  TGI: > 100 µM
HCT-15 colon
  TGI: > 100 µM
HL-60(TB) leukemia
  TGI: > 23.3 µM
HOP-62 NSCLC
  TGI: > 100 µM
HOP-92 NSCLC
  TGI: > 100 µM
HS 578T breast
  TGI: > 100 µM
IGROV1 ovarian
  TGI: > 100 µM
K-562 leukemia
  TGI: > 100 µM
KM12 colon
  TGI: > 100 µM
LOX IMVI melanoma
  TGI: 42.6 µM
M14 melanoma
  TGI: > 100 µM
MALME-3M melanoma
  TGI: > 100 µM
MCF7 breast
  TGI: 19.4 µM
MDA-MB-231 breast
  TGI: > 100 µM
MDA-MB-435
  TGI: 40.7 µM
MOLT-4 leukemia
  TGI: > 39.5 µM
NCI-H226 lung
  TGI: > 100 µM
NCI-H23 lung
  TGI: > 100 µM
NCI-H460 lung
  TGI: > 32.2 µM
NCI-H522 lung
  TGI: 6.11 µM
NCI/ADR-RES ovarian
  TGI: > 100 µM
OVCAR-3 ovarian
  TGI: 6.11 µM
OVCAR-4 ovarian
  TGI: > 100 µM
OVCAR-5 ovarian
  TGI: > 100 µM
OVCAR-8 ovarian
  TGI: > 61.6 µM
PC-3 prostate
  TGI: 5.48 µM
SF-268 CNS
  TGI: > 100 µM
SF-295 CNS
  TGI: > 27.6 µM
SF-539 CNS
  TGI: 6.7 µM
SK-MEL-2 melanoma
  TGI: > 100 µM
SK-MEL-28 melanoma
  TGI: > 100 µM
SK-MEL-5 melanoma
  TGI: > 41.9 µM
SN12C renal
  TGI: 33.9 µM
SNB-19 CNS
  TGI: > 100 µM
SNB-75 CNS
  TGI: > 100 µM
SR leukemia
  TGI: > 100 µM
SW-620 colon
  TGI: > 100 µM
T-47D breast
  TGI: > 100 µM
TK-10 renal
  TGI: > 100 µM
U251 CNS
  TGI: > 100 µM
UACC-257 melanoma
  TGI: > 79.8 µM
UACC-62 melanoma
  TGI: > 100 µM
UO-31 renal
  TGI: > 50.7 µM
